{
  "source": "patent US20100099561A1",
  "about": "“HETEROBICYCLIC ALKYLTHIO-BRIDGED ISOXAZOLINES” (E.I. DU PONT DE NEMOURS AND COMPANY, priority 2008, published 2010)",
  "type_in_all_cases": "in vivo",
  "key": {"[1]": {"tested_on": "downy bromegrass (Bromus tectorum)", "test": "Test B preemergence, downy bromegrass", "conditions": "scale 0 to 100", "excerpt": "(§1) Seeds of plant species selected from blackgrass (Alopecurus myosuroides), downy bromegrass (Bromus tectorum), green foxtail (Setaria viridis), Italian ryegrass (Lolium multiflorum), wheat (Triticum aestivum), wild oat (Avena fatua), catchweed bedstraw (Galium aparine), bermudagrass (Cynodon dactylon), Surinam grass (Brachiaria decumbens), cocklebur (Xanthium strumarium), corn (Zea mays), large crabgrass (Digitaria sanguinalis), woolly cupgrass (Eriochloa villosa), giant foxtail (Setaria faberii), goosegrass (Eleusine indica), johnsongrass (Sorghum halepense), kochia (Kochia scoparia), lambsquarters (Chenopodium album), morningglory (Ipomoea coccinea), nightshade (eastern black nightshade, Solanum ptycanthum), yellow nutsedge (Cyperus esculentus), pigweed (Amaranthus retroflexus), ragweed (common ragweed, Ambrosia elatior), soybean (Glycine max), sunflower (common oilseed sunflower, Helianthus annuus), Russian thistle (Salsola kali), and velvetleaf (Abutilon theophrasti) were planted into a blend of loam soil and sand and treated preemergence with test compounds formulated in a non-phytotoxic solvent mixture which included a surfactant. Treated plants and controls were maintained in a greenhouse for 13 to 15 days, after which time all species were compared to controls and visually evaluated. Plant response ratings, summarized in Table B, are based on a scale of 0 to 100 where 0 is no effect and 100 is complete control. A dash (-) response means no test result."}, "[2]": {"tested_on": "Surinam grass (Brachiaria decumbens)", "test": "Test B preemergence, Surinam grass", "conditions": "Preemergence, scale 0 to 100", "excerpt": "as §1"}, "[3]": {"tested_on": "giant foxtail (Setaria faberi)", "test": "Test A preemergence, giant foxtail", "conditions": "0 to 100 scale (0 no effect, 100 complete control)", "procedure,_shortened": "(§2)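 In a greenhouse, loam–sand potted species were treated with surfactant-formulated compound, preemergence via directed soil spray and postemergence at 2–10 cm height, one- to two-leaf stage. Response assessed visually at about ten days; 100 means complete control.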"}, "[4]": {"tested_on": "ducksalad (Heteranthera limosa)", "test": "Test B flooded paddy test, ducksalad", "conditions": "Flood, scale 0 to 100", "procedure,_shortened": "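Step one: raise plants to 2 leaves. Step two: flood pots 3 cm over the soil and apply compound into the water, keeping this depth. Step three: after 13–15 greenhouse days, score visually versus controls, 0–100, where 100 means complete control.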"}, "[5]": {"tested_on": "woolly cupgrass (Eriochloa villosa)", "test": "Test B preemergence, woolly cupgrass", "conditions": "scale 0 to 100", "excerpt": "as §1"}, "[6]": {"tested_on": "pigweed (Amaranthus retroflexus)", "test": "Test A postemergence, pigweed", "conditions": "0 to 100 scale (0 no effect, 100 complete control)", "procedure,_shortened": "as §2"}, "[7]": {"tested_on": "johnsongrass (Sorghum halepense)", "test": "Test B preemergence, johnsongrass", "conditions": "scale 0 to 100", "excerpt": "as §1"}, "[8]": {"tested_on": "wild oat (Avena fatua)", "test": "Test B preemergence, wild oat", "conditions": "scale 0 to 100", "excerpt": "as §1"}, "[9]": {"tested_on": "morningglory (Ipomoea spp.)", "test": "Test A preemergence, morningglory", "conditions": "0 to 100 scale (0 no effect, 100 complete control)", "procedure,_shortened": "as §2"}, "[10]": {"tested_on": "velvetleaf (Abutilon theophrasti)", "test": "Test A postemergence, velvetleaf", "conditions": "0 to 100 scale (0 no effect, 100 complete control)", "procedure,_shortened": "as §2"}, "[11]": {"tested_on": "barnyardgrass (Echinochloa crus-galli)", "test": "Test A postemergence, barnyardgrass", "conditions": "0 to 100 scale (0 no effect, 100 complete control)", "procedure,_shortened": "as §2"}, "[12]": {"tested_on": "large crabgrass (Digitaria sanguinalis)", "test": "Test A preemergence, large crabgrass", "conditions": "0 to 100 scale (0 no effect, 100 complete control)", "procedure,_shortened": "as §2"}, "[13]": {"tested_on": "bermudagrass (Cynodon dactylon)", "test": "Test B preemergence, bermudagrass", "conditions": "scale 0 to 100", "excerpt": "as §1"}, "[14]": {"tested_on": "soybean (Glycine max)", "test": "Test B preemergence, soybean", "conditions": "Preemergence, scale 0 to 100", "excerpt": "as §1"}, "[15]": {"tested_on": "ragweed (common ragweed, Ambrosia elatior)", "test": "Test B preemergence, ragweed", "conditions": "scale 0 to 100", "excerpt": "as §1"}, "[16]": {"tested_on": "large crabgrass (Digitaria sanguinalis)", "test": "Test B preemergence, large crabgrass", "conditions": "scale 0 to 100", "excerpt": "as §1"}, "[17]": {"tested_on": "green foxtail (Setaria viridis)", "test": "Test B preemergence, green foxtail", "conditions": "scale 0 to 100", "excerpt": "as §1"}, "[18]": {"tested_on": "morningglory (Ipomoea coccinea)", "test": "Test B preemergence, morningglory", "conditions": "scale 0 to 100", "excerpt": "as §1"}, "[19]": {"tested_on": "barnyardgrass (Echinochloa crus-galli)", "test": "Test A preemergence, barnyardgrass", "conditions": "0 to 100 scale (0 no effect, 100 complete control)", "procedure,_shortened": "as §2"}},
  "data": [
    {"smiles": "CC1(C)CC(S(=O)(=O)Cc2c(C(F)(F)F)nc3n(c2=O)CCO3)=NO1", "note": "[Compound 2, 6-[[(4,5-dihydro-5,5-dimethyl-3-isoxazolyl)sulfonyl]methyl]-2,3-dihydro-7-(trifluoromethyl)-5H-oxazolo[3,2-α]pyrimidin-5-one]", "values": [
      {"measurement": "Plant response rating, Bromegrass, Downy", "setting": "[1]; 8 g ai/ha", "result": 0},
      {"measurement": "Plant response rating, Bromegrass, Downy", "setting": "[1]; 16 g ai/ha", "result": 0},
      {"measurement": "Plant response rating, Bromegrass, Downy", "setting": "[1]; 31 g ai/ha", "result": 0},
      {"measurement": "Plant response rating, Bromegrass, Downy", "setting": "[1]; 62 g ai/ha", "result": 0},
      {"measurement": "Plant response rating, Surinam Grass", "setting": "[2]; 16 g ai/ha", "result": 0},
      {"measurement": "Plant response rating, Surinam Grass", "setting": "[2]; 31 g ai/ha", "result": 80},
      {"measurement": "Plant response rating, Surinam Grass", "setting": "[2]; 62 g ai/ha", "result": 80},
      {"measurement": "Plant response rating, Foxtail, Giant", "setting": "[3]; 125 g ai/ha", "result": 90},
      {"measurement": "Plant response rating, Foxtail, Giant", "setting": "[3]; 500 g ai/ha", "result": 100},
      {"measurement": "Plant response rating, Ducksalad", "setting": "[4]; 62 g ai/ha", "result": 0},
      {"measurement": "Plant response rating, Ducksalad", "setting": "[4]; 250 g ai/ha", "result": 0},
      {"measurement": "Plant response rating, Cupgrass, Woolly", "setting": "[5]; 8 g ai/ha", "result": 0},
      {"measurement": "Plant response rating, Cupgrass, Woolly", "setting": "[5]; 16 g ai/ha", "result": 75},
      {"measurement": "Plant response rating, Cupgrass, Woolly", "setting": "[5]; 31 g ai/ha", "result": 75},
      {"measurement": "Plant response rating, Cupgrass, Woolly", "setting": "[5]; 62 g ai/ha", "result": 95},
      {"measurement": "Plant response rating, Pigweed", "setting": "[6]; 125 g ai/ha", "result": 20},
      {"measurement": "Plant response rating, Pigweed", "setting": "[6]; 500 g ai/ha", "result": 60},
      {"measurement": "Plant response rating, Johnsongrass", "setting": "[7]; 8 g ai/ha", "result": 0},
      {"measurement": "Plant response rating, Johnsongrass", "setting": "[7]; 16 g ai/ha", "result": 10},
      {"measurement": "Plant response rating, Johnsongrass", "setting": "[7]; 31 g ai/ha", "result": 30},
      {"measurement": "Plant response rating, Johnsongrass", "setting": "[7]; 62 g ai/ha", "result": 80},
      {"measurement": "Plant response rating, Oat, Wild", "setting": "[8]; 8 g ai/ha", "result": 0},
      {"measurement": "Plant response rating, Oat, Wild", "setting": "[8]; 16 g ai/ha", "result": 0},
      {"measurement": "Plant response rating, Oat, Wild", "setting": "[8]; 31 g ai/ha", "result": 0},
      {"measurement": "Plant response rating, Oat, Wild", "setting": "[8]; 62 g ai/ha", "result": 25},
      {"measurement": "Plant response rating, Morningglory", "setting": "[9]; 125 g ai/ha", "result": 0},
      {"measurement": "Plant response rating, Morningglory", "setting": "[9]; 500 g ai/ha", "result": 80},
      {"measurement": "Plant response rating, Velvetleaf", "setting": "[10]; 125 g ai/ha", "result": 30},
      {"measurement": "Plant response rating, Velvetleaf", "setting": "[10]; 500 g ai/ha", "result": 60},
      {"measurement": "Plant response rating, Barnyardgrass", "setting": "[11]; 125 g ai/ha", "result": 70},
      {"measurement": "Plant response rating, Barnyardgrass", "setting": "[11]; 500 g ai/ha", "result": 80},
      {"measurement": "Plant response rating, Crabgrass, Large", "setting": "[12]; 125 g ai/ha", "result": 90},
      {"measurement": "Plant response rating, Crabgrass, Large", "setting": "[12]; 500 g ai/ha", "result": 100},
      {"measurement": "Plant response rating, Bermudagrass", "setting": "[13]; 8 g ai/ha", "result": 0},
      {"measurement": "Plant response rating, Bermudagrass", "setting": "[13]; 16 g ai/ha", "result": 0},
      {"measurement": "Plant response rating, Bermudagrass", "setting": "[13]; 31 g ai/ha", "result": 75},
      {"measurement": "Plant response rating, Bermudagrass", "setting": "[13]; 62 g ai/ha", "result": 85},
      {"measurement": "Plant response rating, Soybean", "setting": "[14]; 31 g ai/ha", "result": 0},
      {"measurement": "Plant response rating, Soybean", "setting": "[14]; 62 g ai/ha", "result": 0},
      {"measurement": "Plant response rating, Ragweed", "setting": "[15]; 31 g ai/ha", "result": 0},
      {"measurement": "Plant response rating, Ragweed", "setting": "[15]; 62 g ai/ha", "result": 20},
      {"measurement": "Plant response rating, Crabgrass, Large", "setting": "[16]; 8 g ai/ha", "result": 0},
      {"measurement": "Plant response rating, Crabgrass, Large", "setting": "[16]; 16 g ai/ha", "result": 65},
      {"measurement": "Plant response rating, Crabgrass, Large", "setting": "[16]; 31 g ai/ha", "result": 80},
      {"measurement": "Plant response rating, Crabgrass, Large", "setting": "[16]; 62 g ai/ha", "result": 90},
      {"measurement": "Plant response rating, Foxtail, Green", "setting": "[17]; 8 g ai/ha", "result": 0},
      {"measurement": "Plant response rating, Foxtail, Green", "setting": "[17]; 16 g ai/ha", "result": 10},
      {"measurement": "Plant response rating, Foxtail, Green", "setting": "[17]; 31 g ai/ha", "result": 55},
      {"measurement": "Plant response rating, Foxtail, Green", "setting": "[17]; 62 g ai/ha", "result": 85},
      {"measurement": "Plant response rating, Morningglory", "setting": "[18]; 8 g ai/ha", "result": 0},
      {"measurement": "Plant response rating, Morningglory", "setting": "[18]; 16 g ai/ha", "result": 0},
      {"measurement": "Plant response rating, Morningglory", "setting": "[18]; 31 g ai/ha", "result": 0},
      {"measurement": "Plant response rating, Morningglory", "setting": "[18]; 62 g ai/ha", "result": 0},
      {"measurement": "Plant response rating, Barnyardgrass", "setting": "[19]; 125 g ai/ha", "result": 80},
      {"measurement": "Plant response rating, Barnyardgrass", "setting": "[19]; 500 g ai/ha", "result": 90}
    ]}
  ]
}
